The test relates to ZR-75-1. Kind of test: ZR-75-1 proliferation assay (CellTiter-Glo, day 14). In kind it is cell-based. As to conditions: Homo sapiens, 336 h, CTG assay day 14; for IC50: ZR-75-1 proliferation; for Emax: inhibition of ZR-75-1 proliferation, read-out: Maximum inhibition rate/Imax %. The source says:
Test Example 4: ZR-75-1 Proliferation Assay
I. Reagents and Instruments
• 1. ZR-75-1 (ATCC CRL1500) • 2. 1640 medium (Gibco, 22400-089) • 3. 0.25% trypsin-EDTA (1×) (Gibco, 25200-072) • 4. Penicillin-streptomycin (Gibco, 15140-122) • 5. DPBS (1×) (Gibco, 14190-144) • 6. FBS (Gibco, 10091148) • 7. Assay plate, 96-well, black with clear bottom (Corning, 3603) • 8. 96-well non-treated round-bottom plate (JET BIOFIL, TCP-002-096) • 9. CellTiter-Glo buffer (Promega, G756B) • 10. CellTiter-Glo substrate (Promega, G755B) • 11. Automatic cell counter (Countstar, IC1000) • 12. Thermostatic incubator (Thermo, 1160) • 13. PHERAstar FS (BMG labtech, PHERAstar FS)
a. The state of cells was observed under a microscope to make sure that the cell confluence was about 90%.
b. The cell supernatant was discarded. The cells were rinsed with DPBS once, and the DPBS was removed. The cells were digested with a proper amount of trypsin and left to stand at 37° C. for 5 min.
c. The digestion was stopped with an equal volume of 1640 medium containing 10% FBS, and the cell suspension was collected and centrifuged at 300 g for 3 min. The cells were suspended in a proper amount of fresh medium.
d. The resulting cell suspension was collected and cell counting was performed.
e. The cell suspension was diluted to 5×10^4/mL, 50 μL/well with 1640 medium containing 10% FBS. Each well contained 2500 ZR-75-1 cells.
f. The cell culture plates were incubated overnight in a 37° C., 5% carbon dioxide incubator.
2. Compound Addition (Day 1)
a. Each compound was serially diluted in DMSO to 9 concentration points (initial concentration of 100 μM, 3-fold dilution; the highest concentration of each compound may be adjusted depending on its IC50). For example, in a 96-well non-treated round-bottom plate, 3 μL of compound was serially diluted in 6 μL of DMSO.
b. Each concentration point of each compound was diluted 500-fold in the corresponding volume of 1640 medium.
c. 50 μL of diluted compound solution was added to the cell supernatant (50 μL/well) in each cell plate.
d. After the addition, the cell plates were incubated in a 37° C., 5% carbon dioxide incubator.
3. The Cells were Re-Digested and Plated, and the Compounds were Added (Day 7).
a. Six days after the addition, the compound-containing medium was discarded. Then the cells were rinsed with DPBS (150 μL/well), and the DPBS was immediately pipetted off.
b. The cells were digested with 50 μL of trypsin and left to stand at 37° C. for 3 min, and then the digestion was stopped with 1640 medium containing 10% FBS (150 μL/well).
c. The cells were well mixed using a pipette and re-plated at a ratio of 1:8; that is, 25 μL of cell suspension was pipetted into a new 96-well plate (25 μL of 1640 medium containing 10% FBS had been added to the new plate in advance).
d. Compound solution preparation and addition (50 μL/well) were performed according to steps a to c in 2.
e. After the addition, the cell plates were incubated in a 37° C., 5% carbon dioxide incubator.
a. CellTiter-Glo buffer and lyophilized CellTiter-Glo substrate were equilibrated to room temperature before use and were well mixed to prepare a 100-mL CellTiter-Glo reagent (or a prepared CellTiter-Glo reagent was removed from a −20° C. freezer and equilibrated to room temperature).
b. The plates to be tested were removed from the incubator and equilibrated to room temperature, and the CellTiter-Glo reagent was added at 50 μL/well.
c. The plates were shaken for 2 min so that the cells were completely lysed.
d. After the plates were left to stand at room temperature for 28 min and signals were stable, the plates were tested on PHERAstar FS.
(In general: ATP-based viability assays read luminescence as a measure of living cells.)

Molecules are shown by their SMILES.

In general, IC50 refers to the concentration at which inhibition is half-maximal. Lower therefore signals greater potency in that assay.

Consider `COc1cccc(OC)c1S(=O)(=O)Nc1noc2cc(Cn3cccn3)c3c(c12)OCC3` [Compound 1, N-(4-((1H-pyrazol-1-yl)methyl)-2,3-dihydrobenzofuro[7,6-d]isoxazol-8-yl)-2,6-dimethoxybenzenesulfonamide], for which the IC50 was 1.4 nM and the Emax was 96%.
Consider `COc1cccc(OC)c1S(=O)(=O)Nc1noc2cc(Cn3cccn3)c3c(c12)OCCC3` [Compound 2, N-(5-((1H-pyrazol-1-yl)methyl)-3,4-dihydro-2H-chromeno[8,7-d]isoxazol-9-yl)-2,6-dimethoxybenzenesulfonamide], for which the IC50 is 0.4 nM and the Emax was 96%.
The corresponding values for `COc1ccccc1S(=O)(=O)Nc1noc2cc(Cn3cccn3)c3c(c12)OCCC3` [Compound 3, N-(5-((1H-pyrazol-1-yl)methyl)-3,4-dihydro-2H-chromeno[8,7-d]isoxazol-9-yl)-2-methoxybenzenesulfonamide] are 1.9 nM and 95%.
As to `COc1cccc(OC)c1S(=O)(=O)Nc1noc2cc(Cn3cccn3)c3c(c12)OC(F)(F)O3` [Compound 5, N-(4-((1H-pyrazol-1-yl)methyl)-2,2-difluoro-[1,3]dioxolo[4′,5′:5,6]benzo[1,2-d]isoxazol-8-yl)-2,6-dimethoxybenzenesulfonamide], the midpoint of inhibition, the IC50, lay at 0.9 nM and the Emax came out at 98%.
The corresponding values for `CCOc1cc(C)ccc1S(=O)(=O)Nc1noc2cc(Cn3cccn3)c3c(c12)OCCC3` [Compound 7, N-(5-((1H-pyrazol-1-yl)methyl)-3,4-dihydro-2H-chromeno[8,7-d]isoxazol-9-yl)-2-ethoxy-4-methylbenzenesulfonamide] are 1.6 nM and 95.6%.
For the compound `Cc1ccc(S(=O)(=O)Nc2noc3cc(Cn4cccn4)c4c(c23)OCCC4)c(OCC(F)(F)F)c1` [Compound 8, N-(5-((1H-pyrazol-1-yl)methyl)-3,4-dihydro-2H-chromeno[8,7-d]isoxazol-9-yl)-4-methyl-2-(2,2,2-trifluoroethoxy)benzenesulfonamide], the IC50 is 2.6 nM and the Emax was found to be 96.3%.
For `COc1ccc(F)cc1S(=O)(=O)Nc1noc2cc(Cn3cccn3)c3c(c12)OCCC3` [Compound 9, N-(5-((1H-pyrazol-1-yl)methyl)-3,4-dihydro-2H-chromeno[8,7-d]isoxazol-9-yl)-5-fluoro-2-methoxybenzenesulfonamide] the same measures were 1.6 nM and 96.2%.
The corresponding values for `COc1cccc(OC(F)(F)F)c1S(=O)(=O)Nc1noc2cc(Cn3cccn3)c3c(c12)OCCC3` [Compound 10, N-(5-((1H-pyrazol-1-yl)methyl)-3,4-dihydro-2H-chromeno[8,7-d]isoxazol-9-yl)-2-methoxy-6-(trifluoromethoxy)benzenesulfonamide] are 2.95 nM and 94.1%.
For `COc1ccccc1S(=O)(=O)Nc1noc2cc(Cn3cccn3)c3c(c12)OCC3` [Compound 20, N-(4-((1H-pyrazol-1-yl)methyl)-2,3-dihydrobenzofuro[7,6-d]isoxazol-8-yl)-2-methoxybenzenesulfonamide], half-maximal inhibition (IC50) was put at 8.6 nM and the Emax is 94.9%.
Turning to `COc1cccc(OC(F)(F)F)c1S(=O)(=O)Nc1noc2cc(Cn3cccn3)c3c(c12)OCC3` [Compound 23, N-(4-((1H-pyrazol-1-yl)methyl)-2,3-dihydrobenzofuro[7,6-d]isoxazol-8-yl)-2-methoxy-6-(trifluoromethoxy)benzenesulfonamide], the IC50 was 10.9 nM and the Emax was 90.8%.

These data come from patent US20250145637A1, “SULFONAMIDE DERIVATIVE, PREPARATION METHOD THEREFOR AND MEDICAL USE THEREOF” (Jiangsu Hengrui Pharmaceuticals Co. Ltd., priority 2021, published 2025).
